Reference: patent US6953812B2, “Glucagon antagonists/inverse agonists” (Novo Nordisk, Inc., priority 2000, dated 2005)
Read-outs that look alike come from different tables or passages of the source.

Experiments:
human GIP receptor = target: T1, human GIP receptor (Homo sapiens, UniProt P48546); assay: GIP Binding Assay
T1 construct: expressed in transfected cells; host or cells: BHK (baby hamster kidney) cells, membrane preparation
T1 sequence (P48546 22-466): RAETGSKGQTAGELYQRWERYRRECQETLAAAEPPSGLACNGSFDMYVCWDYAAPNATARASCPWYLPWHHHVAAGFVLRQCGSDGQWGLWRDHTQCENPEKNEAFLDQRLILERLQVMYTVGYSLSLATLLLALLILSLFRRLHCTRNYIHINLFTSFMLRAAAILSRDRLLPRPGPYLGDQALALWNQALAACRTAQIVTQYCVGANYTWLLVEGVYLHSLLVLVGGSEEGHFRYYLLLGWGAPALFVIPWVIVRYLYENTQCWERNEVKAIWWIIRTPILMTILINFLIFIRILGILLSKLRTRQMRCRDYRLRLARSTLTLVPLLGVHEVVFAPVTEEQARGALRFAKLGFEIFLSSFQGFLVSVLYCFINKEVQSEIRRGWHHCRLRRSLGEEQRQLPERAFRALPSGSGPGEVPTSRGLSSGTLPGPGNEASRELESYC
Experimental: BHK (baby hamster kidney cell line) cells are transfected with the human GIP receptor and a membrane preparation of the cells is prepared.
(§1) All steps in the membrane preparation are kept on ice or performed at 4° C. BHK cells are harvested and centrifuged. The pellet is resuspended in homogenisation buffer (25 mM) HEPES, pH=7.4, 2.5 mM CaCl2, 1.0 mM MgCl2, 250 mg/L bacitracin, 0.1 mM Pefabloc), homogenised 2×10 sec using Polytron 10-35 homogenizer (Kinematica) and added the same amount of homogenisation buffer as used for resuspension. After centrifugation (15 min at 2000×g) the supernatant is transferred to cold centrifuge tubes and centrifuged for 45 min at 40.000×g. The pellet is resuspended in homogenisation buffer, homogenised 2×10 sec (Polytron) and additional homogenisation buffer is added. The suspension is centrifuged for 45 min at 40.000×g and the pellet is resuspended in resuspension buffer (25 mM HEPES, pH=7.4, 2.5 mM CaCl2, 1.0 mM MgCl2) and homogenised 2×10 sec. (Polytron). […] Stabilisation buffer (25 mM HEPES, pH=7.4, 2.5 mM CaCl2, 1.0 mM MgCl2, 1% bovine serum albumin, 500 mg/L bacitracin, 2.5 M sucrose) is added and the membrane preparation is stored at −80° C.
(§2) The GIP binding assay is carried out in opti plates (Polystyrene Microplates, Packard). 50 μL assay buffer (25 mM HEPES, pH=7.5, 2.5 mM CaCl2, 1.0 mM MgCl2, 0.003% Tween-20, 0.005% bacitracin, 0.05% sodium azide) and 5 μL GIP or test compound (in DMSO) are added to each well. […] Finally 50 μL WGA beads containing 1 mg beads are transferred to the well. The opti plates are incubated for 3.5 hours on a shaker and then settled for 8-48 hours. The opti plates are counted in a Top-counter. Non-specific binding is determined with 500 nM of GIP.

human glucagon receptor = target: T2, human glucagon receptor (Homo sapiens, UniProt P47871); assay: Glucagon Binding Assay (II); conditions: membranes of BHK cells transfected with human glucagon receptor, 125I-glucagon, SPA; read-out: Glu Bd Assay (II) IC50
T2 construct: expressed in transfected cells; host or cells: BHK (baby hamster kidney) cells, membrane preparation
Experimental: Glucagon Binding Assay (II)
BHK (baby hamster kidney cell line) cells are transfected with the human glucagon receptor and a membrane preparation of the cells is prepared.
as §1, with “mM” for “mM)”
as §2, with “glucagon” for “GIP”, “4” for “3.5”, “Topcounter.” for “Top-counter.”, “glucagon.” for “GIP.”

[1] = membranes of BHK cells transfected with human GIP receptor, 125I-GIP, SPA, read-out: GIP Bd Assay IC50

T2 sequence (P47871 26-477): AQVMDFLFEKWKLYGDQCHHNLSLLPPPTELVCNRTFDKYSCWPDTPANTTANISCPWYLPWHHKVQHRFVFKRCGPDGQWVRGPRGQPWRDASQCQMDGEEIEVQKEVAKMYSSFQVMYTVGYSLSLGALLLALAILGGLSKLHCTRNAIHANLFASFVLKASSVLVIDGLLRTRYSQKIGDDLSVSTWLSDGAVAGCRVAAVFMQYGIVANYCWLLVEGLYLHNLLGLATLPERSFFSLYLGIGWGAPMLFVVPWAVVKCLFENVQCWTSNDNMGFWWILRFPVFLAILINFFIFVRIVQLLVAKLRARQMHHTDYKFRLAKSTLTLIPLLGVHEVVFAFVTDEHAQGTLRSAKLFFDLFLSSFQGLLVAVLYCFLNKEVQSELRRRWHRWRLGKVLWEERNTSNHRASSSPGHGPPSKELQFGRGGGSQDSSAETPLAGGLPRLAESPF

| IC50 (human GIP receptor; [1]) [nM] | IC50 (human glucagon receptor) [nM] | SMILES | IC50 (human GIP receptor) [nM] |
| --- | --- | --- | --- |
| > 3000 | 390 | CC(NC(=O)N(Cc1ccc(C(=O)NC[C@@H](O)C(=O)O)cc1)c1ccc(C2CCCCC2)cc1)c1ccc(Br)cc1 (mixture of isomers) [Example 54, 3-{4-[3-[1(RS)-(4-Bromophenyl)ethyl]-1-(4-cyclohexylphenyl)ureidomethyl]benzoylamino}-2(R)-hydroxypropionic acid] |  |
| 205 | 61 | CC(C)(C)c1ccc(N(Cc2ccc(C(=O)NCC(O)C(=O)O)cc2)C(=O)Nc2ccc(OC(F)(F)F)cc2)cc1 (racemic) [Example 16, (RS)-3-{4-[1-(4-tert-Butylphenyl)-3-(4-trifluoromethoxyphenyl)ureidomethyl]benzoylamino}-2-hydroxypropionic acid] |  |
| 516 | 40 | O=C(NCC(F)C(=O)O)c1ccc(CN(C(=O)Nc2cc(Cl)cc(Cl)c2)c2ccc(C3=CCCCC3)cc2)cc1 (racemic) [Example 23, (RS)-3-{4-[1-(4-Cyclohex-1-enylphenyl)3-(3,5-dichlorophenyl)ureidomethyl]benzoylamino}-2-fluoropropionic acid] |  |
| 701 | 29 | COc1cc(NC(=O)N(Cc2ccc(C(=O)NC[C@@H](O)C(=O)O)cc2)c2ccc(C3CCCCC3)cc2)cc(C(F)(F)F)c1 [Example 1, (R)-3-{4-[1-(4-Cyclohexylphenyl)-3-(3methoxy-5-trifluoromethylphenyl)ureidomethyl]benzoylamino}-2-hydroxypropionic acid] |  |
| 269 | 12 | O=C(NC[C@@H](O)C(=O)O)c1ccc(CN(C(=O)Nc2cc(C(F)(F)F)cc(C(F)(F)F)c2)c2ccc(C3CCCCC3)cc2)cc1 [Example 2, (R)-3-{4-[3-(3,5-Bis(trifluoromethyl)phenyl)-1-(4-cyclohexylphenyl)ureidomethyl]benzoylamino}-2-hydroxypropionic acid] |  |
| 653 | 18 | O=C(NC[C@@H](O)C(=O)O)c1ccc(CN(C(=O)Nc2cccc(Br)c2)c2ccc(C3CCCCC3)cc2)cc1 [Example 3, (R)-3-{4-[3-(3-Bromophenyl)-1-(4-cyclohexylphenyl)ureidomethyl]benzoylamino}-2-hydroxypropionic acid] |  |
| 124 | 23 | O=C(NC[C@@H](O)C(=O)O)c1ccc(CN(C(=O)Nc2ccc(OC(F)(F)F)cc2)c2ccc(C3CCCCC3)cc2)cc1 [Example 4, (R)-3-{4-[1-(4-Cyclohexylphenyl)-3-(4-trifluoromethoxyphenyl)ureidomethyl]benzoylamino}-2-hydroxypropionic acid] |  |
| 519 | 26 | O=C(NC[C@@H](O)C(=O)O)c1ccc(CN(C(=O)Nc2cccc(C(F)(F)F)c2)c2ccc(C3CCCCC3)cc2)cc1 [Example 5, (R)-3-{4-[1-(4-Cyclohexylphenyl)-3-(3-trifluoromethylphenyl)ureidomethyl]benzoylamino}-2-hydroxypropionic acid] |  |
| 294 | 10 | O=C(NC[C@@H](O)C(=O)O)c1ccc(CN(C(=O)Nc2cc(F)cc(C(F)(F)F)c2)c2ccc(C3CCCCC3)cc2)cc1 [Example 6, (R)-3-{4-[1-(4-Cyclohexylphenyl)-3-(3-fluoro-5-trifluoromethylphenyl)ureidomethyl]benzoylamino}-2-hydroxypropionic acid] |  |
| 292 | 26 | N#Cc1cc(NC(=O)N(Cc2ccc(C(=O)NC[C@@H](O)C(=O)O)cc2)c2ccc(C3=CCCCC3)cc2)cc(C(F)(F)F)c1 [Example 7, (R)-3-{4-[3-(3-Cyano-5-trifluoromethylphenyl)-1-(4-cyclohex-1-enylphenyl)ureidomethyl]benzoylamino}-2-hydroxypropionic acid] |  |
| 316 | 14 | N#Cc1cc(NC(=O)N(Cc2ccc(C(=O)NC[C@@H](O)C(=O)O)cc2)c2ccc(C3CCCCC3)cc2)cc(C(F)(F)F)c1 [Example 8, (R)-3-{4-[3-(3-Cyano-5-trifluoromethylphenyl)-1-(4-cyclohexylphenyl)ureidomethyl]benzoylamino}-2-hydroxypropionic acid] |  |
| 285 | 11 | O=C(NC[C@@H](O)C(=O)O)c1ccc(CN(C(=O)Nc2cc(Br)cc(C(F)(F)F)c2)c2ccc(C3=CCCCC3)cc2)cc1 [Example 9, (R)-3-{4-[3-(3-Bromo-5-trifluoromethylphenyl)-1-(4-cyclohex-1-enylphenyl)ureidomethyl]benzoylamino}-2-hydroxypropionic acid] |  |
| 294 | 19 | COc1cc(NC(=O)N(Cc2ccc(C(=O)NC[C@@H](O)C(=O)O)cc2)c2ccc(C3=CCCCC3)cc2)cc(C(F)(F)F)c1 [Example 10, (R)-3-{4-[1-(4-Cyclohex-1-enylphenyl)-3-(3-methoxy-5-trifluoromethylphenyl)ureidomethyl]benzoylamino}-2-hydroxypropionic acid] |  |
| 914 | 41 | O=C(NC[C@@H](O)C(=O)O)c1ccc(CN(C(=O)Nc2cccc(Br)c2)c2ccc(C3=CCCCC3)cc2)cc1 [Example 11, (R)-3-{4-[3-(3-Bromophenyl)-1-(4-cyclohex-1-enylphenyl)ureidomethyl]benzoylamino}-2-hydroxypropionic acid] |  |
| 204 | 10 | O=C(NC[C@@H](O)C(=O)O)c1ccc(CN(C(=O)Nc2cc(Br)cc(C(F)(F)F)c2)c2ccc(C3CCCCC3)cc2)cc1 [Example 12, (R)-3-{4-[3-(3-Bromo-5-trifluoromethylphenyl)-1-(4-cyclohexylphenyl)ureidomethyl]benzoylamino}-2-hydroxypropionic acid] |  |
| 395 | 35 | Cc1cc(NC(=O)N(Cc2ccc(C(=O)NC[C@@H](O)C(=O)O)cc2)[C@H]2CC[C@H](C(C)(C)C)CC2)cc(C(F)(F)F)c1 [Example 15, Trans-(R)-3-{4-[3-(3-methyl-5-trifluoromethylphenyl)-1-(4-tert-butylcyclohexyl)ureidomethyl]benzoylamino}-2-hydroxypropionic acid] |  |
| > 1500 | 177 | O=C(NC[C@H](O)C(=O)O)c1ccc(CN(C(=O)Nc2cc(Cl)cc(Cl)c2)c2ccc(C3=CCCCC3)cc2)cc1 [Example 18, (S)-3-{4-[1-(4-Cyclohex-1-enylphenyl)-3-(3,5-dichlorophenyl)ureidomethyl]benzoylamino}-2-hydroxypropionic acid] |  |

| SMILES | IC50 (human GIP receptor; [1]) [nM] | IC50 (human glucagon receptor) [nM] | IC50 (human GIP receptor) [nM] |
| --- | --- | --- | --- |
| O=C(NCC(O)C(=O)O)c1ccc(CN(C(=O)Nc2cc(Cl)cc(Cl)c2)c2ccc(C3=CCCCC3)cc2)cc1 (racemic) [Example 17, (RS)-3-{4-[1-(4-Cyclohex-1-enylphenyl)-3-(3,5-dichlorophenyl)ureidomethyl]benzoylamino}-2-hydroxypropionic acid] |  | 22 | 448 |
